Experimental data from the supplement of paper PMC10307832.

Key:
Test in all cases: relative viability (nuclei count vs DMSO), 5 days (fraction); higher = more cells survive
[1] = system: 201T
Summary of the method: (§1)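 Nuclei were stained with Hoechst during a one-step fixation (final 0.05% Triton X-100, 1% formaldehyde, 1 ug/ml Hoechst) carried out 5 days after dosing, then counted on 4× images. The cells, lung cancer lines in 1536-well plates, had been dosed by pin tool the day after seeding with one drug alone or a fixed anchor-drug dose plus five library-drug doses (not always all listed) in √10 steps. Relative viability is the nuclei count in treated wells divided by that in vehicle wells, and each value is the median of duplicate plates.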

[2] = system: ABC-1
Summary of the method: as §1

[3] = system: COR-L 105
Summary of the method: as §1

[4] = system: COR-L23
Summary of the method: as §1

[5] = system: EKVX
Summary of the method: as §1

[6] = system: EPLC-272H
Summary of the method: as §1

[7] = system: H3255
Summary of the method: as §1

[8] = system: HCC-15
Summary of the method: as §1

[9] = system: HCC-44
Summary of the method: as §1

[10] = system: HCC-827
Summary of the method: as §1

[11] = system: LCLC-103H
Summary of the method: as §1

[12] = system: NCI-H1437
Summary of the method: as §1

[13] = system: NCI-H1650
Summary of the method: as §1

[14] = system: NCI-H1651
Summary of the method: as §1

[15] = system: NCI-H1792
Summary of the method: as §1

[16] = system: NCI-H1975
Summary of the method: as §1

[17] = system: NCI-H2087
Summary of the method: as §1

[18] = system: NCI-H358
Summary of the method: as §1

[19] = system: NCI-H520
Summary of the method: as §1

[20] = system: NCI-H647
Summary of the method: as §1

[21] = system: NCI-H661
Summary of the method: as §1

[22] = system: NCI-H727
Summary of the method: as §1

[23] = system: UMC-11
Summary of the method: as §1

Question: Which relative viability ([1]; first compound 5 µM) does the source give for `O=C(O)CCCCC(CCSCc1ccccc1)SCc1ccccc1` (centres undefined) [CPI-613] + O=C(c1cc(Cc2n[nH]c(=O)c3ccccc23)ccc1F)N1CCN(C(=O)C2CC2)CC1 [Olaparib] (partner 8 µM) here?
Answer: 0.849

Question: And the relative viability ([1]; first compound 15.81 µM)?
Answer: 0.788

Question: And the relative viability ([1]; first compound 50 µM)?
Answer: 0.776

Question: What about the relative viability ([1]; first compound 158.11 µM) of the same compound?
Answer: 0.594

Question: What about the relative viability ([1]; first compound 500 µM) of the same compound?
Answer: 0.633

Question: What about the relative viability ([2]; first compound 5 µM) of the same compound?
Answer: 0.816

Question: What about the relative viability ([2]; first compound 15.81 µM) of the same compound?
Answer: 0.845

Question: What about the relative viability ([2]; first compound 50 µM) of the same compound?
Answer: 0.957

Question: What about the relative viability ([2]; first compound 158.11 µM) of the same compound?
Answer: 0.448

Question: What about the relative viability ([2]; first compound 500 µM) of the same compound?
Answer: 0.383

Question: What about the relative viability ([3]; first compound 5 µM) of the same compound?
Answer: 0.78

Question: What about the relative viability ([3]; first compound 15.81 µM) of the same compound?
Answer: 0.685

Question: And the relative viability ([3]; first compound 50 µM)?
Answer: 0.739

Question: And the relative viability ([3]; first compound 158.11 µM)?
Answer: 0.268

Question: And the relative viability ([3]; first compound 500 µM)?
Answer: 0.28

Question: What about the relative viability ([4]; first compound 5 µM) of the same compound?
Answer: 0.369

Question: What about the relative viability ([4]; first compound 15.81 µM) of the same compound?
Answer: 0.299

Question: And the relative viability ([4]; first compound 50 µM)?
Answer: 0.389

Question: What about the relative viability ([4]; first compound 158.11 µM) of the same compound?
Answer: 0.175

Question: And the relative viability ([4]; first compound 500 µM)?
Answer: 0.0294

Question: And the relative viability ([5]; first compound 5 µM)?
Answer: 0.756

Question: What about the relative viability ([5]; first compound 15.81 µM) of the same compound?
Answer: 0.862

Question: What about the relative viability ([5]; first compound 50 µM) of the same compound?
Answer: 0.856

Question: And the relative viability ([5]; first compound 500 µM)?
Answer: 0.802

Question: What about the relative viability ([6]; first compound 5 µM) of the same compound?
Answer: 0.812

Question: And the relative viability ([6]; first compound 15.81 µM)?
Answer: 0.683

Question: What about the relative viability ([6]; first compound 50 µM) of the same compound?
Answer: 0.653

Question: What about the relative viability ([6]; first compound 158.11 µM) of the same compound?
Answer: 0.198

Question: What about the relative viability ([6]; first compound 500 µM) of the same compound?
Answer: 0.083

Question: And the relative viability ([7]; first compound 5 µM)?
Answer: 0.539

Question: And the relative viability ([7]; first compound 15.81 µM)?
Answer: 0.587

Question: And the relative viability ([7]; first compound 50 µM)?
Answer: 0.557

Question: And the relative viability ([7]; first compound 158.11 µM)?
Answer: 0.527

Question: And the relative viability ([7]; first compound 500 µM)?
Answer: 0.517

Question: And the relative viability ([8]; first compound 5 µM)?
Answer: 0.743

Question: What about the relative viability ([8]; first compound 15.81 µM) of the same compound?
Answer: 0.712

Question: What about the relative viability ([8]; first compound 50 µM) of the same compound?
Answer: 0.612

Question: And the relative viability ([8]; first compound 158.11 µM)?
Answer: 0.178

Question: And the relative viability ([8]; first compound 500 µM)?
Answer: 0.0853

Question: And the relative viability ([9]; first compound 5 µM)?
Answer: 0.97

Question: What about the relative viability ([9]; first compound 15.81 µM) of the same compound?
Answer: 0.95

Question: What about the relative viability ([9]; first compound 50 µM) of the same compound?
Answer: 0.925

Question: And the relative viability ([9]; first compound 158.11 µM)?
Answer: 0.629

Question: And the relative viability ([9]; first compound 500 µM)?
Answer: 0.469

Question: And the relative viability ([10]; first compound 5 µM)?
Answer: 0.558

Question: What about the relative viability ([10]; first compound 15.81 µM) of the same compound?
Answer: 0.602

Question: What about the relative viability ([10]; first compound 50 µM) of the same compound?
Answer: 0.691

Question: And the relative viability ([10]; first compound 158.11 µM)?
Answer: 0.691

Question: What about the relative viability ([10]; first compound 500 µM) of the same compound?
Answer: 0.538

Question: And the relative viability ([11]; first compound 5 µM)?
Answer: 0.755

Question: And the relative viability ([11]; first compound 15.81 µM)?
Answer: 0.669

Question: What about the relative viability ([11]; first compound 50 µM) of the same compound?
Answer: 0.733

Question: What about the relative viability ([11]; first compound 158.11 µM) of the same compound?
Answer: 0.55

Question: What about the relative viability ([11]; first compound 500 µM) of the same compound?
Answer: 0.717

Question: And the relative viability ([12]; first compound 5 µM)?
Answer: 0.599

Question: What about the relative viability ([12]; first compound 15.81 µM) of the same compound?
Answer: 0.595

Question: And the relative viability ([12]; first compound 50 µM)?
Answer: 0.508

Question: And the relative viability ([12]; first compound 158.11 µM)?
Answer: 0.112

Question: What about the relative viability ([12]; first compound 500 µM) of the same compound?
Answer: 0.0622

Question: And the relative viability ([13]; first compound 5 µM)?
Answer: 0.728

Question: What about the relative viability ([13]; first compound 15.81 µM) of the same compound?
Answer: 0.791

Question: What about the relative viability ([13]; first compound 50 µM) of the same compound?
Answer: 0.749

Question: What about the relative viability ([13]; first compound 158.11 µM) of the same compound?
Answer: 0.416

Question: What about the relative viability ([13]; first compound 500 µM) of the same compound?
Answer: 0.0224

Question: And the relative viability ([14]; first compound 5 µM)?
Answer: 0.189

Question: And the relative viability ([14]; first compound 15.81 µM)?
Answer: 0.192

Question: What about the relative viability ([14]; first compound 50 µM) of the same compound?
Answer: 0.189

Question: And the relative viability ([14]; first compound 158.11 µM)?
Answer: 0.198

Question: What about the relative viability ([14]; first compound 500 µM) of the same compound?
Answer: 0.175

Question: And the relative viability ([15]; first compound 5 µM)?
Answer: 0.391

Question: What about the relative viability ([15]; first compound 15.81 µM) of the same compound?
Answer: 0.358

Question: What about the relative viability ([15]; first compound 50 µM) of the same compound?
Answer: 0.328

Question: And the relative viability ([15]; first compound 158.11 µM)?
Answer: 0.0603

Question: And the relative viability ([15]; first compound 500 µM)?
Answer: 0.087

Question: And the relative viability ([16]; first compound 5 µM)?
Answer: 0.745

Question: What about the relative viability ([16]; first compound 15.81 µM) of the same compound?
Answer: 0.758

Question: What about the relative viability ([16]; first compound 50 µM) of the same compound?
Answer: 0.85

Question: What about the relative viability ([16]; first compound 158.11 µM) of the same compound?
Answer: 0.563

Question: What about the relative viability ([16]; first compound 500 µM) of the same compound?
Answer: 0.099

Question: What about the relative viability ([17]; first compound 5 µM) of the same compound?
Answer: 0.517

Question: What about the relative viability ([17]; first compound 15.81 µM) of the same compound?
Answer: 0.522

Question: What about the relative viability ([17]; first compound 50 µM) of the same compound?
Answer: 0.627

Question: What about the relative viability ([17]; first compound 158.11 µM) of the same compound?
Answer: 0.0403

Question: What about the relative viability ([17]; first compound 500 µM) of the same compound?
Answer: 0.0077

Question: What about the relative viability ([18]; first compound 5 µM) of the same compound?
Answer: 0.532

Question: What about the relative viability ([18]; first compound 15.81 µM) of the same compound?
Answer: 0.518

Question: What about the relative viability ([18]; first compound 50 µM) of the same compound?
Answer: 0.572

Question: And the relative viability ([18]; first compound 158.11 µM)?
Answer: 0.126

Question: What about the relative viability ([18]; first compound 500 µM) of the same compound?
Answer: 0.112

Question: What about the relative viability ([19]; first compound 5 µM) of the same compound?
Answer: 0.323

Question: And the relative viability ([19]; first compound 15.81 µM)?
Answer: 0.371

Question: What about the relative viability ([19]; first compound 50 µM) of the same compound?
Answer: 0.329

Question: And the relative viability ([19]; first compound 158.11 µM)?
Answer: 0.136

Question: And the relative viability ([19]; first compound 500 µM)?
Answer: 0.113

Question: And the relative viability ([20]; first compound 5 µM)?
Answer: 0.426

Question: And the relative viability ([20]; first compound 15.81 µM)?
Answer: 0.528

Question: What about the relative viability ([20]; first compound 50 µM) of the same compound?
Answer: 0.331

Question: What about the relative viability ([20]; first compound 158.11 µM) of the same compound?
Answer: 0.0348

Question: And the relative viability ([20]; first compound 500 µM)?
Answer: 0.0133

Question: What about the relative viability ([21]; first compound 5 µM) of the same compound?
Answer: 0.714

Question: What about the relative viability ([21]; first compound 15.81 µM) of the same compound?
Answer: 0.726

Question: And the relative viability ([21]; first compound 50 µM)?
Answer: 0.718

Question: What about the relative viability ([21]; first compound 158.11 µM) of the same compound?
Answer: 0.399

Question: And the relative viability ([21]; first compound 500 µM)?
Answer: 0.153

Question: What about the relative viability ([22]; first compound 5 µM) of the same compound?
Answer: 0.783

Question: What about the relative viability ([22]; first compound 15.81 µM) of the same compound?
Answer: 0.672

Question: What about the relative viability ([22]; first compound 50 µM) of the same compound?
Answer: 0.631

Question: What about the relative viability ([22]; first compound 158.11 µM) of the same compound?
Answer: 0.748

Question: What about the relative viability ([22]; first compound 500 µM) of the same compound?
Answer: 0.678

Question: What about the relative viability ([23]; first compound 5 µM) of the same compound?
Answer: 0.352

Question: And the relative viability ([23]; first compound 15.81 µM)?
Answer: 0.371

Question: And the relative viability ([23]; first compound 50 µM)?
Answer: 0.375

Question: And the relative viability ([23]; first compound 158.11 µM)?
Answer: 0.155

Question: What about the relative viability ([23]; first compound 500 µM) of the same compound?
Answer: 0.115
